Reference: paper PMC6339874, “Anthranilic Acid Inhibitors of Undecaprenyl Pyrophosphate Synthase (UppS), an Essential Enzyme for Bacterial Cell Wall Biosynthesis” (Frontiers in Microbiology, 2019)
Values after ≈ are worked out from the molar mass of the structure shown.

Experiments:
[1] = target: T1, undecaprenyl pyrophosphate synthase (UppS) (Escherichia coli, UniProt P60472); experiment: biochemical; set-up: radiolabeled [14C]-IPP UppS assay, TLC quantification of [14C]-UPP; residual activity or IC50; conditions: read-out: % of control remaining
T1 construct: gene ispU; N-terminal His6-tagged UppSEc
T1 sequence (P60472 1-253): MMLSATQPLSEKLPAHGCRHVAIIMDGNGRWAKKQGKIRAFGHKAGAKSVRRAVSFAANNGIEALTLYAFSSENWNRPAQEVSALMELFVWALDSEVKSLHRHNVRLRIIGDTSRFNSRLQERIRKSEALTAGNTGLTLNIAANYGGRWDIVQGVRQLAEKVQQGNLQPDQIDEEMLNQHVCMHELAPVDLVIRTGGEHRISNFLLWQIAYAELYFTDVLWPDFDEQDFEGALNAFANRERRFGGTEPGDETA
Protocol: The UppS enzymatic activity was determined by using a kinetics-based assay utilizing a radiolabeled substrate. The assay revolves on the measuring of UPP formation in the reaction mixture in a final volume of 40 μL. Stock solutions of all compounds (2 mM) were prepared in DMSO and the final concentration of DMSO in the assay was 5% (v/v). The enzyme was diluted in buffer A to appropriate concentration so that the consumption of the substrate in the assay is no higher than 30%. The reaction mixture consisted of 20 μL of 100 mM HEPES, pH 7.5, 50 mM KCl, 0.5 mM MgCl2, 1.5 μM FPP, 12 μM [^14C]-IPP ([^14C]-IPP; 289 Bq), 2 μL DMSO with or without the inhibitor and 18 μL of optimal enzyme solution. […] Reaction mixture was lyophilized and resuspended in 10 μL of purified water. The radiolabeled substrate, [^14C]-IPP, and the product, [^14C]UPP, were separated on a Silica gel 60 TLC plate using 1-propranol / ammonium hydroxide / water in ratio of 6/3/1 (v/v/v) as a mobile phase (Rf([^14C]–IPP) = 0.21, Rf[^14C]UPP = 0.56), and quantified with a radioactivity scanner (Rita Star, Raytest Isotopenmessgeräte GmbH, Straubenhardt, Germany). Residual activities (RAs) were calculated with respect to a control reaction without the tested compounds and with 5% DMSO. All the experiments were run in duplicate with standard deviations within ± 10%. The IC50 values represented the concentrations for which the RA was 50% and were determined by measuring the RAs at seven different compound concentrations. The 34 purchased compounds were tested for their inhibitory potencies against E. coli UppS using a radioactivity-based assay. In these test conditions, the [^14C]-UPP formation is observed thanks to a radiolabeled substrate ([^14C]-IPP) and quantified with a radioactivity scanner. The results are presented as RAs of UppS in the presence of 100 μM of each compound (Supplementary Table S1). […] Sodium risedronate was used as a positive control to enable the comparison of the purchased compounds to a known inhibitor and to confirm the results of the UppS inhibition assay. […] All three inhibitors are anthranilic acid derivatives with a larger hydrophobic moiety attached to the amide group via different linkers, 2-cyanoacryloyl for compounds 1 and 2 and 2-thioacetyl for compound 3.

E. coli = experiment: microbe, parasite or virus in culture; set-up: antibacterial MIC determination on wild-type strains; conditions: Escherichia coli, read-out: MIC E. coli
Protocol: E. coli AcrAB-TolC is a tripartite multidrug efflux pump system that expels compounds form the cell and this represents one of the possible mechanisms of bacterial defence against xenobiotics ([Kim et al., 2015]). […] On the other hand, compound 2 inhibited bacterial growth in both E. coli BW25113 ΔtolC strains with or without permeable membrane (MIC = 0.5 μg/mL). The antibacterial activity in the efflux pump-deficient E. coli BW25113 ΔtolC strain is independent from the presence of polymyxine B. Therefore, it can be postulated on the basis of the evaluation of compound 2, that transport across E. coli cell membrane is possible. This compound therefore represents an interesting starting point for further development, for example computational searches of similar compounds and analog synthesis.

S. aureus = experiment: microbe, parasite or virus in culture; set-up: antibacterial MIC determination on wild-type strains; conditions: Staphylococcus aureus, read-out: MIC S. aureus
[2] = target: T2, undecaprenyl pyrophosphate synthase (UppS) (Escherichia coli, UniProt P60472); experiment: radiolabeled […]-IPP assay, TLC quantification of […]-UPP, IC50 from seven concentrations; assay type: biochemical
T2 construct: gene ispU; N-terminal His6-tagged UppSEc

| SMILES | remaining activity at 100 µM [1] | MIC (E. coli) | MIC (S. aureus) | IC50 [2] |
| --- | --- | --- | --- | --- |
| O=C(O)c1ccccc1C(=O)Nc1ccc(C(=O)N(c2ccccc2)c2ccc3ccccc3c2)cc1 [S2] | 58% | > 128 µg/mL | > 128 µg/mL |  |
| O=C(O)C1CCCCC1C(=O)Nc1ccc(N2CCN(c3cccc(Cl)c3Cl)CC2)cc1 (stereo not drawn) [S3] | 96% | > 128 µg/mL | > 128 µg/mL |  |
| CC(=O)c1ccc(NC(=O)C(Sc2ccc(NC(=O)c3ccccc3C(=O)O)cc2)c2ccccc2)cc1 (stereo not drawn) [S4] | 101% | > 128 µg/mL | > 128 µg/mL |  |
| O=C(Cc1ccccc1C(=O)O)Nc1ccn(Cc2ccccc2Cl)n1 [S5] | 115% | > 128 µg/mL | > 128 µg/mL |  |
| O=C(O)C1CCCCC1C(=O)Nc1ccc(N2CCN(Cc3ccccc3)CC2)cc1 (stereo not drawn) [S6] | 53% | > 128 µg/mL | > 128 µg/mL |  |
| CCCn1cc(NC(=O)CNS(=O)(=O)c2cccc3c(N(C)C)cccc23)c(C(=O)O)c1 [S7] | 85% | > 128 µg/mL | > 128 µg/mL |  |
| O=C(O)CCC(NC(=O)C(=Cc1cn(-c2ccccc2)nc1-c1cccnc1)NC(=O)c1ccccc1)C(=O)O (stereo not drawn) [S8] | 92% | > 128 µg/mL | > 128 µg/mL |  |
| Cc1ccc(Nc2nccc(Nc3ccc(O)c(C(=O)O)c3)n2)c(C)c1 [S9] | 72% | > 128 µg/mL | > 128 µg/mL |  |
| O=C(O)c1ccccc1C(=O)Nc1ccc(C(=O)N(c2ccccc2)c2cccc3ccccc23)cc1 [S11] | 60% | > 128 µg/mL | > 128 µg/mL |  |
| Cc1sc(NC(=O)c2ccccc2C(=O)O)nc1-c1ccc(-c2ccccc2)cc1 [S12] | 120% | > 128 µg/mL | > 128 µg/mL |  |
| Cc1cc(C)n(CCCNc2ccc(C(=O)c3ccccc3C(=O)O)cc2[N+](=O)[O-])n1 [S13] | 92% | > 128 µg/mL | > 128 µg/mL |  |
| O=C(Nc1ccccc1C(=O)O)c1cccc(NC(=O)C(c2ccccc2)c2ccccc2)c1 [S14] | 101% | > 128 µg/mL | 128 µg/mL (≈ 284 µM) |  |
| O=C(CN1CCCC1C(=O)O)NCc1ccc(COc2ccccc2)cc1 (stereo not drawn) [S15] | 124% | > 128 µg/mL | > 128 µg/mL |  |
| Cc1ccc(N2CCN(C(=O)c3ccccc3NC(=O)C3CC=CCC3C(=O)O)CC2)cc1 (stereo not drawn) [S16] | 104% | > 128 µg/mL | > 128 µg/mL |  |
| Cc1ccc(-n2c(SCC(=O)Nc3ccccc3C(=O)O)nnc2-c2cc3ccccc3o2)cc1 [S18] | 122% | > 128 µg/mL | > 128 µg/mL |  |
| O=C(O)C1CC=CCC1C(=O)Nc1ccccc1C(=O)N1CCN(c2ccc(F)cc2)CC1 (stereo not drawn) [S19] | 99% | > 128 µg/mL | > 128 µg/mL |  |
| O=C(O)c1cccc(C(=O)NCCc2nc3ccccc3n2C(F)F)c1 [S20] | 168% | > 128 µg/mL | > 128 µg/mL |  |

| SMILES | remaining activity at 100 µM [1] | MIC (E. coli) | MIC (S. aureus) | IC50 [2] |
| --- | --- | --- | --- | --- |
| COc1ccc(C(=O)Nc2ccc(N3CCN(c4ccccc4F)CC3)cc2C(=O)O)cc1 [S21] | 74% | > 128 µg/mL | > 128 µg/mL |  |
| O=C(Nc1ccc(COCc2ccccc2)cc1)c1ccnc(C(=O)O)c1 [S22] | 93% | > 128 µg/mL | > 128 µg/mL |  |
| Cc1ccc(OCCNC(=O)C2CC=CCC2C(=O)O)cc1 (stereo not drawn) [S23] | 117% | > 128 µg/mL | > 128 µg/mL |  |
| O=C(COc1ccccc1)Nc1ccc(N2CCN(c3ccc(Cl)cc3)CC2)cc1C(=O)O [S25] | 121% | > 128 µg/mL | 64 µg/mL (≈ 137 µM) |  |
| CCOc1ccc(N(CC(=O)Nc2ccccc2C(=O)O)S(=O)(=O)c2ccc(Cl)cc2)cc1 [S26] | 102% | > 128 µg/mL | 128 µg/mL (≈ 262 µM) |  |
| O=C(O)c1ccccc1C(=O)NCCC(c1ccc(F)cc1)c1ccco1 (stereo not drawn) [S27] | 99% | > 128 µg/mL | > 128 µg/mL |  |
| CCCc1ccc(S(=O)(=O)Nc2ccc(N3CCN(C4CCCCC4)CC3)cc2C(=O)O)cc1 [S28] | 113% | > 128 µg/mL | > 128 µg/mL |  |
| O=C(Cn1cc(-c2ccc(Cl)cc2)ncc1=O)NC(C(=O)O)c1ccccc1 (stereo not drawn) [S29] | 96% | > 128 µg/mL | > 128 µg/mL |  |
| O=C(NCCc1ccccc1)c1ccc(NC(=O)c2nccnc2C(=O)O)cc1 [S30] | 122% | > 128 µg/mL | > 128 µg/mL |  |
| Cc1cccc(N2CCN(c3ccc(NC(=O)C(C)C)c(C(=O)O)c3)CC2)c1 [S31] | 125% | > 128 µg/mL | > 128 µg/mL |  |
| Cc1cccc(C(=O)O)c1NC(=O)COc1ccc(Cl)cc1 [S32] | 122% | > 128 µg/mL | > 128 µg/mL |  |
| COC(=O)C(NC(=O)c1ccccc1C(=O)O)c1ccc(OCc2ccccc2)c(OC)c1 (stereo not drawn) [S33] | 65% | > 128 µg/mL | > 128 µg/mL |  |
| CCCCCCCCCCCCN(CP(=O)(O)O)CP(=O)(O)O [S34] | 147% | > 128 µg/mL | 128 µg/mL (≈ 343 µM) |  |
| N#C/C(=C\c1cn(Cc2cccc3ccccc23)c2ccccc12)C(=O)Nc1ccccc1C(=O)O [compound 1] |  | > 128 µg/mL | > 128 µg/mL | 45 µM |
| N#C/C(=C\c1cccc(OCc2ccc(F)cc2)c1)C(=O)Nc1ccccc1C(=O)O [compound 2] |  | > 128 µg/mL | > 128 µg/mL | 25 µM |
| O=C(CSc1nnc(-c2cc3ccccc3o2)n1-c1ccccc1)Nc1ccccc1C(=O)O [compound 3] |  | > 128 µg/mL | > 128 µg/mL | 24 µM |
